Results: patent US12097215B2, “Antibacterial composition and its use in treating bacterial infections” (Vector Vitale IP LLC, priority 2017, dated 2024)
Values after ≈ are worked out from the molar mass of the structure shown.

Columns and labels:
E. coli ATCC 25922 [1] = test: MIC of deuterium-depleted water by serial dilutions in normal saline solution; format: cell-based; conditions: basic solution, 10^4, 10^6, 10^8 cells/ml
Description: (§1) The minimum inhibitory concentration (MIC) of deuterium-depleted water was determined by serial dilutions in normal saline solution. Reference strains of E. coli ATCC 25922 and P. aeruginosa ATCC 27859 were used as test cultures. For inoculation, microbial suspension equivalent to a 0.5 standard McFarland (1.5×10^8 cells/ml) was used. Then the dilutions with normal saline solution were prepared so that the concentration of microorganisms reached approximately 10^4 cells/ml. The test cultures were previously grown for 24 hours at 37° C. One-tenth of a milliliter (0.1 ml) of the suspension was placed into each test tube containing 4 ml of the medium with the investigative active substance at a certain concentration (without deuterium-depleted water in the control). The tubes were incubated in an incubator at 37° C. for 24 hours. After incubation the inoculum from each tube was plated on Mueller-Hinton agar medium for P. aeruginosa and on Endo for E. coli and incubated at 37° C. for another 24 hours. The results were evaluated based on the presence of bacterial growth (turbidity) in the nutrient broth and, if necessary, by using other additional known bacteriological tests. The first few tubes remained transparent due to the antimicrobial effect of the study substance. […] The results are shown in the table below and illustrated in FIGS. 5b and 5c.

P. aeruginosa ATCC 27859 = test: as above; format: cell-based; conditions: basic solution, 10^4, 10^6, 10^8 cells/ml; text names ATCC 27853
Description: as §1

S. aureus ATCC 25923 [2] = test: MIC by serial dilutions in broth (visible growth); format: cell-based; conditions: Staphylococcus aureus, ATCC25923; Table 9, commercial antibacterial agents; read-out: MIC;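 note: broth tubes inoculated at about 5×10^5 CFU/ml, incubated 16-24 h at 35 °C in air, growth judged by transmitted light against an unexposed refrigerated inoculum tube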
Description: (§4) The minimum inhibitory concentration (MIC) and minimum bactericidal concentration (MBC) of the antibacterial composition enriched for the light isotope zinc ^64Zne was evaluated in the experiment. […] S. aureus ATCC 25923, E. coli ATCC 25922 and P. aeruginosa ATCC 27853 were used as test cultures.
(§5) The studies were carried out using the method of serial dilutions in broth. To determine sensitivity of microorganisms to the antibacterial composition, 0.5 ml of broth was placed into each tube. The number of tubes was determined based on the desired number of dilutions and was increased by one for the “negative” control (no test composition). Series of two-fold serial dilutions of the test variants of the antibacterial composition were used and concentrations ranging from 450 mcg ^64Zne/ml to 0.000107 mcg ^64Zne/ml were obtained.
(§6) Reference test strains of S. aureus ATCC 25923, E. coli ATCC 25922 and P. aeruginosa ATCC 27853 were incubated in Mueller-Hinton liquid broth at 37° C. for 24 hours. Standard bacterial suspension equivalent to 0.5 McFarland standard diluted 100-fold with the broth was used for the inoculation of the tubes after which the concentration of microorganism in it was approximately 10^6 CFU/ml.
(§7) 0.5 ml of inoculum was added to each tube containing 0.5 ml of the appropriate dilution of a solution of the ^64Zn-enriched salt of interest. […] The final concentration of the microorganism in each tube was approximately 5×10^5 CFU/ml.
(§8) The tubes were incubated at 35° C. in air for 16-20 or 20-24 hours (depending on the bacterial strain).
(§9) To determine the presence of microorganism growth the test tubes with inoculum were viewed under transmitted light. Transmitted light was measured by spectrophotometry. The growth of culture in the presence of antibacterial compositions based on ^64Zne was compared with the reference test tube (“negative” control), containing the original inoculum and stored in the refrigerator. The MIC was determined as the lowest concentration of ^64Zne that inhibits visible growth of the microorganism. Both gram-positive (S. aureus) and gram-negative bacteria (P. aeruginosa, E. coli) were used in the experiments described below.
(§10) That is, ^64Zne in the form of a salt was compared with a composition that contains zinc with a natural distribution of isotopes. […] Relevant samples containing salt of natural zinc with EDDA and natural zinc sulfate were used for the comparison.
(§11) The following commercial antibacterial medications were used for the study: azithromycin and ceftriaxone and norfloxacin. The initial concentration of 3000 mcg/ml was used for the samples of all the above compounds. […] Serial dilutions of the above antibacterial compounds were also prepared in the same way as for the antibacterial composition of the invention. The same pathogenic strains of S. aureus ATCC 25923, E. coli ATCC 25922, P. aeruginosa ATCC 27853 were used for the study.

E. coli ATCC 25922 [3] = test: MIC by serial dilutions in broth (visible growth); format: cell-based; conditions: Escherichia coli, ATCC25922; Table 9, commercial antibacterial agents; read-out: MIC;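 note: broth tubes inoculated to about 5×10^5 CFU/ml, incubated at 35 °C for 16-24 h, growth judged by transmitted light versus an untreated inoculum reference tube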
Description: as §4, §5, §6, §7, §8, §9, §10, §11

E. coli ATCC 25922 [4] = test: MBC by plating tube contents on Mueller-Hinton medium; format: cell-based; conditions: Escherichia coli, ATCC25922; Table 10, commercial antibacterial agents; read-out: MBC
Description: (§2) To evaluate the bactericidal action of the antibacterial composition based on light isotope ^64Zne the minimum bactericidal concentration (MBC) was determined by plating out 0.1 ml of the contents of each tube containing the antibacterial composition on Mueller-Hinton medium. The incubation was at 37° C. for 24 h.
(§3) The MBC of the test samples was determined as the lowest concentration at which there was no growth on Mueller-Hinton agar medium.

P. aeruginosa ATCC 27853 [5] = test: as above; format: cell-based; conditions: Pseudomonas aeruginosa, ATCC27853; Table 10, commercial antibacterial agents; read-out: MBC
Description: as §2, §3

S. aureus ATCC 25923 [6] = test: as above; format: cell-based; conditions: Staphylococcus aureus, ATCC25923; Table 10, commercial antibacterial agents; read-out: MBC
Description: as §2, §3

P. aeruginosa ATCC 27853 [7] = test: MIC by serial dilutions in broth (visible growth); conditions: Pseudomonas aeruginosa, ATCC27853
Description: as §4, §5, §6, §7, §8, §9, §10, §11

SMILES | bactericidal effect (in words) (E. coli ATCC 25922 [1]) | bactericidal effect (in words) (P. aeruginosa ATCC 27859) | MIC (S. aureus ATCC 25923 [2]) [µg/mL] | MIC (E. coli ATCC 25922 [3]) [µg/mL] | MBC (E. coli ATCC 25922 [4]) [µg/mL] | MBC (P. aeruginosa ATCC 27853 [5]) [µg/mL] | MBC (S. aureus ATCC 25923 [6]) [µg/mL] | MIC (P. aeruginosa ATCC 27853 [7]) [µg/mL]
O [deuterium-depleted water] | bactericidal effect | bactericidal effect |  |  |  |  |  | 
CC[C@H]1OC(=O)[C@H](C)[C@@H](O[C@H]2C[C@@](C)(OC)[C@@H](O)[C@H](C)O2)[C@H](C)[C@@H](O[C@@H]2O[C@H](C)C[C@H](N(C)C)[C@H]2O)[C@](C)(O)C[C@@H](C)CN(C)[C@H](C)[C@@H](O)[C@]1(C)O [azithromycin, reference compound] |  |  | 188 (≈ 250 µM) | 1500 (≈ 2000 µM) | < 1500 | < 1500 | < 1500 | 1500 (≈ 2000 µM)
CCn1cc(C(=O)O)c(=O)c2cc(F)c(N3CCNCC3)cc21 [norfloxacin, reference compound] |  |  | 11.7 (≈ 36.7 µM) | 23.4 (≈ 73.4 µM) | < 1500 | < 1500 | < 1500 | 188 (≈ 587 µM)
